Consider 68 compounds from patent US9416126B2, “Compounds inhibiting leucine-rich repeat kinase enzyme activity” (Merck Sharp & Dohme Corp., priority 2013, dated 2016).

The target of one assay is LRRK2(G2019S mutation, GST-LRRK2(amino acids 970-2527)) (Homo sapiens (Human), UniProt Q5S007, G2019S). Kind of assay: LRRK2 Km ATP LanthaScreen Assay. The class given is biochemical. To be noted: Examples O1-O23. The method, boiled down: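 TR-FRET: GST-LRRK2 970-2527 G2019S (2.5 nM solution) preincubated 30 min with compound (98 μM top, 1:2.15 dilutions), then 800 nM fluorescein-LRRKtide and 184 μM ATP solution added for 60 min at room temperature in Tris pH 8.5 buffer. Stopped with EDTA and Tb anti-phospho-LRRKtide antibody; IC50 is a mean of several tests.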
LRRK2(G2019S mutation, GST-LRRK2(amino acids 970-2527)), sequence (Q5S007 970-2527 G2019S): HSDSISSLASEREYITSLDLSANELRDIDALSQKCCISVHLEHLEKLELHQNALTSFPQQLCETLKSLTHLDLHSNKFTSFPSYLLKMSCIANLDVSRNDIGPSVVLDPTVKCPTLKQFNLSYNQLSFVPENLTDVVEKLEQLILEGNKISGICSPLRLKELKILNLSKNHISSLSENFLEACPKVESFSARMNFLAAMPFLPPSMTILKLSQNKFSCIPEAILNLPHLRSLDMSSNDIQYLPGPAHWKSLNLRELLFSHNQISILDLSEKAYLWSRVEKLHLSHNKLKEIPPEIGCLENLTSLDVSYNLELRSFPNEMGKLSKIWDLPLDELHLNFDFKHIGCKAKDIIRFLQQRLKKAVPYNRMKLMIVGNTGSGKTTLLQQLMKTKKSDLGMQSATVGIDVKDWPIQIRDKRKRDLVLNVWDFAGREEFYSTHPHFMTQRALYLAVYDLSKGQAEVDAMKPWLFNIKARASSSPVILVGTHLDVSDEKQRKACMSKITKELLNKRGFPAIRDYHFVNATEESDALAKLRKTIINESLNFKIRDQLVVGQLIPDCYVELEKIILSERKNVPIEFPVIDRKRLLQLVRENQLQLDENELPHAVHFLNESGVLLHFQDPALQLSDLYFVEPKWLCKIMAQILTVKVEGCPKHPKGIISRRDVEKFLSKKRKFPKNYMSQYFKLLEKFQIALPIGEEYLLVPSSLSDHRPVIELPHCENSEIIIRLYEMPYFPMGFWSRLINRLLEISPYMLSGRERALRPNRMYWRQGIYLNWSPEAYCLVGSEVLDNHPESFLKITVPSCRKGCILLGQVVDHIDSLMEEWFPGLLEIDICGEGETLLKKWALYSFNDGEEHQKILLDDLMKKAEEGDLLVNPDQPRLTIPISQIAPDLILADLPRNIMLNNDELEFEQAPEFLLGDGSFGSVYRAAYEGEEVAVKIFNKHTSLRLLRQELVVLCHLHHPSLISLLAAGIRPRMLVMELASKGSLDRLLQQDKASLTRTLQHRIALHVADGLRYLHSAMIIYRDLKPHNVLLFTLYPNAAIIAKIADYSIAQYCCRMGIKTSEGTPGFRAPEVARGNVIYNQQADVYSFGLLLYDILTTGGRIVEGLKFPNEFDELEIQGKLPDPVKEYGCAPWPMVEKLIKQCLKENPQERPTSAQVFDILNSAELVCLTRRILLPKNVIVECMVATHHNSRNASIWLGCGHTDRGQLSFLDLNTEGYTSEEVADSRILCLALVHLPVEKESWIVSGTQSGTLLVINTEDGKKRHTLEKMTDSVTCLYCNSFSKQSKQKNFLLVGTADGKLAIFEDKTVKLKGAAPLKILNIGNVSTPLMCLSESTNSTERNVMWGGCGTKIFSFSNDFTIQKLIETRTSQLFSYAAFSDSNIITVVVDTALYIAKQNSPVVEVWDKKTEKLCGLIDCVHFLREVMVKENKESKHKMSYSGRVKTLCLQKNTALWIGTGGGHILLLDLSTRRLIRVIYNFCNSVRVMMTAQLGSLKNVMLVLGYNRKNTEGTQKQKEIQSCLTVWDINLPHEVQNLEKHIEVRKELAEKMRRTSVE
(In general: Time-resolved FRET reads energy transfer from a long-lived donor to a nearby acceptor.)
The compound `COC[C@H](C)Oc1ccc2[nH]nc(-c3cc(N4CCN(C)C(=O)C4)ncn3)c2c1` [Example O9] showed an IC50 of 10.9 nM. Same read-out and setting: with `COC[C@H](C)Oc1ccc2[nH]nc(-c3cc(N4CC(OC)C4)ncn3)c2c1` [Example O10] the figure was 5.6 nM.

`COC[C@H](C)Oc1ccc2[nH]nc(-c3cc(N4CCN(C5CC5)CC4)ncn3)c2c1` [Example O11] yielded an IC50 of 4.1 nM.

For `COC[C@H](C)Oc1ccc2[nH]nc(-c3cc(N4C[C@H](F)[C@@H](F)C4)ncn3)c2c1` [Example O12], the IC50 was found to be 7.9 nM. For the compound `COCC1CN(c2cc(-c3n[nH]c4ccc(O[C@@H](C)COC)cc34)ncn2)CCO1` (some centres unmarked) [Example O13], the IC50 came out at 3.6 nM. Against the preceding compound, the IC50 is about 2.2-fold lower. The same measure, in the same setting: the result for `COC[C@H](C)Oc1ccc2[nH]nc(-c3cc(N4CC(F)(F)C4)ncn3)c2c1` [Example O14] reads 7.6 nM; that for `COC[C@H](C)Oc1ccc2[nH]nc(-c3cc(N4[C@H](C)COC[C@@H]4C)ncn3)c2c1` [Example O15], 7.4 nM. `COC[C@H](C)Oc1ccc2[nH]nc(-c3cc(N4CCOC[C@@H]4C)ncn3)c2c1` [Example O16] showed an IC50 of 6 nM.

`COC[C@H](C)Oc1ccc2[nH]nc(-c3cc(N4CCc5oc(C)nc5C4)ncn3)c2c1` [Example O17] came in with an IC50 of 8.4 nM.

For the compound `COC[C@H](C)Oc1ccc2[nH]nc(-c3cc(N4CCOC(C)(C)C4)ncn3)c2c1` [Example O18], the IC50 was 5.3 nM. This IC50 lies about 1.6-fold lower than the previous one. Same read-out and setting: with `COC[C@H](C)Oc1ccc2[nH]nc(-c3cc(N4CCC(F)(F)CC4)ncn3)c2c1` [Example O19] the figure was 8 nM; with `COC[C@H](C)Oc1ccc2[nH]nc(-c3cc(N4CCN5C(=O)OCC5C4)ncn3)c2c1` (some centres unmarked) [Example O20], 8.8 nM. Consider `COC[C@H](C)Oc1ccc2[nH]nc(-c3cc(N4C[C@H](OC)[C@@H](O)C4)ncn3)c2c1` [Example O21], for which the IC50 worked out at 19.8 nM. This IC50 lies about 2.2-fold higher than the previous one.

`COC[C@H](C)Oc1ccc2[nH]nc(-c3cc(N4C[C@H](O)[C@@H](N(C)C)C4)ncn3)c2c1` [Example O22]: the IC50 was 6.6 nM. `COC[C@H](C)Oc1ccc2[nH]nc(-c3cc(N4CCC5(CC4)CNC(=O)CO5)ncn3)c2c1` [Example O23] had an IC50 of 3.5 nM.

The assay is the same for the next values; noted with them: Examples P1-P18.
In turn, `N#Cc1cc(-c2ccc3[nH]nc(-c4cc(N5CCOCC5)ncn4)c3c2)ccn1` [Example P1] came in with an IC50 of 340 nM. The same measure, in the same setting: the result for `c1nc(-c2n[nH]c3ccc(-c4ccc5ncnn5c4)cc23)cc(N2CCOCC2)n1` [Example P2] reads 193 nM; that for `c1cc(-c2ccc3[nH]nc(-c4cc(N5CCOCC5)ncn4)c3c2)ccn1` [Example P3], 96.7 nM; that for `Cc1noc(C)c1-c1ccc2[nH]nc(-c3cc(N4CCOCC4)ncn3)c2c1` [Example P4], 48.7 nM. The compound `c1ncc(-c2ccc3[nH]nc(-c4cc(N5CCOCC5)ncn4)c3c2)cn1` [Example P5] yielded an IC50 of 40.7 nM. As to `N#Cc1ccc(-c2ccc3[nH]nc(-c4cc(N5CCOCC5)ncn4)c3c2)cc1` [Example P6], the IC50 was 150 nM. On the same count and under the same terms, the result for `N#Cc1cccc(-c2ccc3[nH]nc(-c4cc(N5CCOCC5)ncn4)c3c2)c1` [Example P7] reads 81.3 nM. On the same count and under the same terms, with `CCN(CC)C(=O)c1ccc(-c2ccc3[nH]nc(-c4cc(N5CCOCC5)ncn4)c3c2)cc1` [Example P8] the figure was 608 nM; with `O=S(=O)(c1ccc(-c2ccc3[nH]nc(-c4cc(N5CCOCC5)ncn4)c3c2)cc1)N1CCCC1` [Example P9], 914 nM; with `COc1cnc(-c2ccc3[nH]nc(-c4cc(N5CCOCC5)ncn4)c3c2)cn1` [Example P10], 272 nM. For `COc1cncc(-c2ccc3[nH]nc(-c4cc(N5CCOCC5)ncn4)c3c2)n1` [Example P11], half-maximal inhibition (IC50) required 18.3 nM. Still for that read-out and setting: the result for `c1nc(-c2n[nH]c3ccc(-c4ccc5nncn5c4)cc23)cc(N2CCOCC2)n1` [Example P12] reads 56.1 nM. The compound `Cn1nccc1-c1ccc2[nH]nc(-c3cc(N4CCOCC4)ncn3)c2c1` [Example P13] displayed an IC50 of 45.7 nM. The IC50 values of the last two compounds are within 1.5-fold of each other. Same read-out and setting: the result for `COc1ncccc1-c1ccc2[nH]nc(-c3cc(N4CCOCC4)ncn3)c2c1` [Example P14] reads 37.7 nM; that for `Cc1nocc1-c1ccc2[nH]nc(-c3cc(N4CCOCC4)ncn3)c2c1` [Example P15], 59 nM; that for `COCCn1cc(-c2ccc3[nH]nc(-c4cc(N5CCOCC5)ncn4)c3c2)cn1` [Example P16], 1.5 nM.

`COc1ccc(-c2ccc3[nH]nc(-c4cc(N5CCOCC5)ncn4)c3c2)cn1` [Example P17] showed an IC50 of 31.2 nM. Still for that read-out and setting: the result for `O=C(NCCO)c1ccc(-c2ccc3[nH]nc(-c4cc(N5CCOCC5)ncn4)c3c2)cc1` [Example P18] reads 154 nM.

Staying with this assay, now noted: Examples Q1-Q20.
Turning to `C[C@@H]1CN(c2cc(-c3n[nH]c4ccc(-c5ccc6ncnn6c5)cc34)ncn2)C[C@H](C)O1` [Example Q1], the IC50 was 240 nM. Same read-out and setting: with `COc1ncccc1-c1ccc2[nH]nc(-c3cc(N4C[C@@H](C)O[C@@H](C)C4)ncn3)c2c1` [Example Q2] the figure was 158 nM. Regarding `C[C@@H]1CN(c2cc(-c3n[nH]c4ccc(-c5ccnn5C)cc34)ncn2)C[C@H](C)O1` [Example Q3], half-maximal inhibition (IC50) required 32.1 nM.

For the compound `Cc1cncc(-c2ccc3[nH]nc(-c4cc(N5C[C@@H](C)O[C@@H](C)C5)ncn4)c3c2)c1` [Example Q4], the IC50 stood at 2.2 nM. Still for that read-out and setting: the result for `Cc1nocc1-c1ccc2[nH]nc(-c3cc(N4C[C@@H](C)O[C@@H](C)C4)ncn3)c2c1` [Example Q5] reads 40 nM. Still for that read-out and setting: with `C[C@@H]1CN(c2cc(-c3n[nH]c4ccc(-c5ccncc5)cc34)ncn2)C[C@H](C)O1` [Example Q6] the figure was 49.5 nM; with `COc1cnc(-c2ccc3[nH]nc(-c4cc(N5C[C@@H](C)O[C@@H](C)C5)ncn4)c3c2)cn1` [Example Q7], 63.4 nM; with `C[C@@H]1CN(c2cc(-c3n[nH]c4ccc(-c5cncnc5)cc34)ncn2)C[C@H](C)O1` [Example Q8], 30.3 nM.

In the case of `COc1ccc(-c2ccc3[nH]nc(-c4cc(N5C[C@@H](C)O[C@@H](C)C5)ncn4)c3c2)cn1` [Example Q9], half-maximal inhibition (IC50) was put at 41.1 nM. Same read-out and setting: the result for `COc1cncc(-c2ccc3[nH]nc(-c4cc(N5C[C@@H](C)O[C@@H](C)C5)ncn4)c3c2)n1` [Example Q10] reads 2.4 nM. For `C[C@@H]1CN(c2cc(-c3n[nH]c4ccc(-c5ccnc(C#N)c5)cc34)ncn2)C[C@H](C)O1` [Example Q11], the IC50 came to 172 nM. Same read-out and setting: the result for `Cc1ncc(-c2ccc3[nH]nc(-c4cc(N5C[C@@H](C)O[C@@H](C)C5)ncn4)c3c2)nc1C` [Example Q12] reads 17.4 nM. Same read-out and setting: the result for `C[C@@H]1CN(c2cc(-c3n[nH]c4ccc(-c5cnc(N6CCCC6)s5)cc34)ncn2)C[C@H](C)O1` [Example Q13] reads 7.6 nM. `COCCn1cc(-c2ccc3[nH]nc(-c4cc(N5C[C@@H](C)O[C@@H](C)C5)ncn4)c3c2)cn1` [Example Q14] showed an IC50 of 1.8 nM. The same measure, in the same setting: the result for `COc1cc(-c2ccc3[nH]nc(-c4cc(N5C[C@@H](C)O[C@@H](C)C5)ncn4)c3c2)ccn1` [Example Q15] reads 155 nM. Same read-out and setting: the result for `C[C@@H]1CN(c2cc(-c3n[nH]c4ccc(-c5ccc6nncn6c5)cc34)ncn2)C[C@H](C)O1` [Example Q16] reads 60.6 nM; that for `C[C@@H]1CN(c2cc(-c3n[nH]c4ccc(-c5ccc(C(=O)NCCO)cc5)cc34)ncn2)C[C@H](C)O1` [Example Q17], 77 nM. On the same count and under the same terms, the result for `C[C@@H]1CN(c2cc(-c3n[nH]c4ccc(-c5ccc(C#N)cc5)cc34)ncn2)C[C@H](C)O1` [Example Q18] reads 177 nM. Turning to `C[C@@H]1CN(c2cc(-c3n[nH]c4ccc(-c5cccc(C#N)c5)cc34)ncn2)C[C@H](C)O1` [Example Q19], half-maximal inhibition (IC50) was put at 47.9 nM. The same measure, in the same setting: with `CCN(CC)C(=O)c1ccc(-c2ccc3[nH]nc(-c4cc(N5C[C@@H](C)O[C@@H](C)C5)ncn4)c3c2)cc1` [Example Q20] the figure was 847 nM.

The assay is the same for the next values; noted with them: Km ATP (184 μM ATP solution), G2019S LRRK2, mean IC50.
On to `CC(C)=Cc1ccc2[nH]nc(-c3cc(N4CCO[C@H](C)C4)ncn3)c2c1` [Example S1], for which the IC50 came to 16.4 nM. The same measure, in the same setting: the result for `CC(C)=Cc1ccc2[nH]nc(-c3cc(N4CCN(S(C)(=O)=O)CC4)ncn3)c2c1` [Example S2] reads 28.8 nM. `CC(C)=Cc1ccc2[nH]nc(-c3cc(N4CCN(C)CC4)ncn3)c2c1` [Example S3]: the IC50 came to 32.9 nM. In turn, `CC(C)=Cc1ccc2[nH]nc(-c3cc(N4CCN(C)C(=O)C4)ncn3)c2c1` [Example S4] had an IC50 of 36.2 nM. `CC(C)=Cc1ccc2[nH]nc(-c3cc(N4C[C@@H](C)O[C@@H](C)C4)ncn3)c2c1` [Example S5] showed an IC50 of 20.3 nM. Same read-out and setting: with `c1cncc(-c2ccc3[nH]nc(-c4cc(N5CCOCC5)ncn4)c3c2)c1` [Example T1] the figure was 5.5 nM; with `CS(=O)(=O)N1CCN(c2cc(-c3n[nH]c4ccc(-c5cccnc5)cc34)ncn2)CC1` [Example T2], 7.3 nM.

Still in this assay, the particulars now being: Table U.
In the case of `FC1(F)CCN(c2cc(-c3n[nH]c4ccc(-c5ccoc5)cc34)ncn2)CC1` [Example U1], the IC50 came to 86.2 nM. Same read-out and setting: with `FC1(F)CCN(c2cc(-c3n[nH]c4ccc(-c5ccsc5)cc34)ncn2)CC1` [Example U2] the figure was 348 nM; with `FC1(F)CCN(c2cc(-c3n[nH]c4ccc(C5=CCNCC5)cc34)ncn2)CC1` [Example U3], 120 nM. Still for that read-out and setting: the result for `COc1ccncc1-c1ccc2[nH]nc(-c3cc(N4CCC(F)(F)CC4)ncn3)c2c1` [Example U4] reads 6.66 nM; that for `CC1(C)CC(=O)C=C(c2ccc3[nH]nc(-c4cc(N5CCC(F)(F)CC5)ncn4)c3c2)C1` [Example U5], 7.08 nM; that for `FC1(F)CCN(c2cc(-c3n[nH]c4ccc(-c5cc[nH]n5)cc34)ncn2)CC1` [Example U6], 2.16 nM. The same measure, in the same setting: with `FC1(F)CCN(c2cc(-c3n[nH]c4ccc(-c5cn[nH]c5)cc34)ncn2)CC1` [Example U7] the figure was 5.69 nM. As for `c1nc(-c2n[nH]c3ccc(-c4ccoc4)cc23)cc(N2CCOCC2)n1` [Example U8], the IC50 is 19 nM. Compared with the last compound, the IC50 is about 3.3-fold higher.

As usually defined, the IC50 is the midpoint of a concentration-inhibition curve.
